Ten compounds from ChEMBL document CHEMBL1201862, “PubChem BioAssay data set” (2004) can be followed below.

Molecules are shown by their SMILES.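 Following 48 hours of exposure in 96-well plates, responses at five concentrations were used to interpolate endpoints linearly. At the GI50, growth is halved.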 Activity calls are given as the source filed them. No stated cut-off is given here; in the data, active = GI50 up to about 1.1 µM and inactive = higher. Peptide text beside a SMILES is read from it. A value given as a limit tells only on which side of the number the result lay.

Test systems include 786-0; CAKI-1; HCT-116; HL-60; Hs-578T; KM12; NCI-H226; NCI-H23; NCI/ADR-RES; OVCAR-4; OVCAR-8; RXF 393; SK-MEL-2; SK-MEL-5; SK-OV-3; SNB-19; SNB-75; SR; T47D; UO-31.
Common to all, as to test: inhibition of tumour cell growth, NCI panel, 48 h

Turning to `c1ccc2c(c1)cc1c3[nH]c4ccccc4c3ccn21`, the GI50 in the assay on 786-0 was > 10 µM (inactive); in the assay on CAKI-1 it was > 10 µM (inactive); in the assay with HCT-116, 6.92 µM (inactive); in the assay with HL-60, 0.687 µM (active); in the assay on Hs-578T it was > 10 µM (inactive); with KM12, > 10 µM (inactive). Further, the GI50 in the assay on NCI-H226, with NCI-H23, in the assay with NCI/ADR-RES, in the assay with OVCAR-4, with OVCAR-8 and in the assay on RXF 393 was > 10 µM (inactive) throughout. Besides, the GI50 in the assay on SK-MEL-2, with SK-MEL-5, in the assay on SK-OV-3, with SNB-19, in the assay with SNB-75 and with SR was > 10 µM (inactive) throughout. For the same compound, the GI50 in the assay with T47D and in the assay on UO-31 was > 10 µM (inactive) throughout.

On to `O=C(CN1C(=O)c2ccccc2C1=O)NC1(C(=O)O)CCCC1`, for which the GI50 in the assay on 786-0, in the assay on CAKI-1, in the assay on HCT-116, in the assay with HL-60, with Hs-578T and in the assay on KM12 was > 100 µM (inactive) each time. Moreover, the GI50 in the assay on NCI-H226, in the assay with NCI-H23, with NCI/ADR-RES, in the assay on OVCAR-4, in the assay with OVCAR-8 and with RXF 393 was > 100 µM (inactive) throughout. The GI50 in the assay with SK-MEL-2, with SK-MEL-5, in the assay with SK-OV-3, in the assay on SNB-19, in the assay with SNB-75 and in the assay on SR was > 100 µM (inactive) in each case. The GI50 in the assay with T47D and with UO-31 was > 100 µM (inactive) in each case.

On to `CC(=O)NC(CS)C(=O)NC(CO)C(=O)NC(CO)C(=O)NC(Cc1c[nH]c2ccccc12)C(=O)N1CCCC1C(=O)NC(CO)C(=O)NC(Cc1c[nH]c2ccccc12)C(=O)NC(Cc1c[nH]cn1)C(=O)NC(CO)C(=O)NC(Cc1c[nH]c2ccccc12)C(=O)NCC(=O)NCC(=O)NC(C)C(=O)NC(CCC(N)=O)C(=O)NC(CCCCN)C(=O)NC(C)C(=O)NC(CCCNC(=N)N)C(=O)NC(CCCCN)C(N)=O` (stereo not given) (Ac-CSSWPSWHSWGGAQKARK-NH2; configuration not given here), for which the GI50 is 10.1 µM (inactive) in the assay with 786-0; 11.9 µM (inactive) with CAKI-1; 34 µM (inactive) with HCT-116; 12.4 µM (inactive) with HL-60; 29.2 µM (inactive) in the assay on Hs-578T; 11.6 µM (inactive) in the assay with KM12. Also, the GI50 with NCI-H226 is > 50 µM (inactive); in the assay on NCI-H23, 14.8 µM (inactive); with NCI/ADR-RES, > 50 µM (inactive); with OVCAR-4, > 50 µM (inactive); in the assay on OVCAR-8 it was 42.6 µM (inactive); in the assay on RXF 393, 10 µM (inactive). Besides, the GI50 in the assay on SK-MEL-2 is 26.4 µM (inactive); in the assay on SK-MEL-5, 11 µM (inactive); in the assay with SK-OV-3, > 50 µM (inactive); in the assay on SNB-19, > 50 µM (inactive); with SNB-75, 13.9 µM (inactive); with SR it was 11.8 µM (inactive). Also, the values for the GI50 in the assay with T47D and in the assay on UO-31 were 11 µM (inactive) and > 50 µM (inactive), respectively.

For the compound `O=C(NNC(=S)Nc1ccc(Cl)cc1)C12CC3CC(CC(C3)C1)C2`, the GI50 is 5.15 µM (inactive) in the assay with 786-0; 7.19 µM (inactive) in the assay with CAKI-1; 2.57 µM (inactive) with HCT-116; 1.68 µM (inactive) with HL-60; 17.1 µM (inactive) in the assay with Hs-578T; 9.84 µM (inactive) in the assay on KM12. Also, the GI50 was 10.7 µM (inactive) in the assay with NCI-H226; 7.5 µM (inactive) in the assay with NCI-H23; 3.56 µM (inactive) with NCI/ADR-RES; 4.92 µM (inactive) in the assay with OVCAR-4; 3.52 µM (inactive) with OVCAR-8; 14.7 µM (inactive) in the assay with RXF 393. In addition, the GI50 with SK-MEL-2 is 14.3 µM (inactive); with SK-MEL-5 it was 3.85 µM (inactive); with SK-OV-3, 9.79 µM (inactive); with SNB-19 it was 5.15 µM (inactive); in the assay on SNB-75, 15.6 µM (inactive); in the assay with SR, 1.04 µM (active). In addition, the figures for the GI50 with T47D and in the assay with UO-31 were 4.59 µM (inactive) and 1.38 µM (inactive), respectively.

In the case of `NCCCc1c(-c2ccccc2)[nH]c(N)nc1=O`, the GI50 in the assay with 786-0, with CAKI-1, in the assay with HCT-116, in the assay with HL-60, with Hs-578T and in the assay on KM12 was > 100 µM (inactive) each time. Also, the GI50 with NCI-H226, with NCI-H23, with NCI/ADR-RES, with OVCAR-4, in the assay on OVCAR-8 and in the assay on RXF 393 was > 100 µM (inactive) in each case. Besides, the GI50 in the assay on SK-MEL-2, in the assay on SK-MEL-5, in the assay on SK-OV-3, in the assay with SNB-19, in the assay with SNB-75 and with SR was > 100 µM (inactive) each time. The GI50 with T47D and in the assay with UO-31 was > 100 µM (inactive) each time.

Regarding `O=[N+]([O-])/C(Cl)=C/C(=C1/Nc2ccccc2O1)[N+](=O)[O-]`, the GI50 was 31.8 µM (inactive) in the assay with 786-0; 21.4 µM (inactive) with CAKI-1; 13.9 µM (inactive) with HCT-116; 11.6 µM (inactive) with HL-60; 27.2 µM (inactive) with Hs-578T; 19.2 µM (inactive) in the assay with KM12. The GI50 was 27.4 µM (inactive) in the assay on NCI-H226; 17.8 µM (inactive) with NCI-H23; 24.3 µM (inactive) with NCI/ADR-RES; 29 µM (inactive) with OVCAR-4; 17.9 µM (inactive) in the assay on OVCAR-8; 18.1 µM (inactive) with RXF 393. Also, the GI50 in the assay on SK-MEL-5 was 22.2 µM (inactive); in the assay with SK-OV-3, 24 µM (inactive); in the assay with SNB-19, 17.4 µM (inactive); with SNB-75 it was 14.1 µM (inactive); with SR, 8.71 µM (inactive); in the assay on T47D, 32.6 µM (inactive). Also, the GI50 with UO-31 was 15.7 µM (inactive).

As for `COc1ccc(-c2nnc3n(Cc4ccccc4)c4ccccc4n3c2=O)cc1`, the GI50 was 10.9 µM (inactive) with 786-0; 13.9 µM (inactive) in the assay with CAKI-1; 38.7 µM (inactive) with HCT-116; > 100 µM (inactive) in the assay with HL-60; 22.1 µM (inactive) in the assay on Hs-578T; > 100 µM (inactive) in the assay on KM12. Moreover, the GI50 was 17.4 µM (inactive) with NCI-H226; 31.3 µM (inactive) with NCI-H23; 55.8 µM (inactive) in the assay with NCI/ADR-RES; 6.01 µM (inactive) in the assay on OVCAR-4; 30.9 µM (inactive) with OVCAR-8; 26.8 µM (inactive) with RXF 393. For the same compound, the GI50 in the assay on SK-MEL-2 was 14.8 µM (inactive); in the assay on SK-MEL-5, 53.5 µM (inactive); in the assay with SNB-19 it was 23.2 µM (inactive); in the assay with SNB-75, 11.9 µM (inactive); in the assay with SR, > 100 µM (inactive); with T47D it was 45.6 µM (inactive). Besides, in the assay with UO-31, the GI50 was 39.9 µM (inactive).

As to `O=C(CCc1ccc(O)c(O)c1)NCCc1cc(O)c(O)c(O)c1`, the GI50 was 18.6 µM (inactive) with 786-0; 18.6 µM (inactive) in the assay on HCT-116; 49.5 µM (inactive) with HL-60; 78.3 µM (inactive) in the assay on Hs-578T; 25.4 µM (inactive) in the assay with KM12; 34.3 µM (inactive) with NCI-H226. The GI50 was 15.8 µM (inactive) in the assay with NCI-H23; 18.1 µM (inactive) in the assay on NCI/ADR-RES; 20.2 µM (inactive) in the assay on OVCAR-4; 20.4 µM (inactive) in the assay on OVCAR-8; 66.7 µM (inactive) with RXF 393; 21.8 µM (inactive) in the assay with SK-MEL-2. Also, the GI50 was 23.3 µM (inactive) in the assay on SK-MEL-5; > 100 µM (inactive) in the assay on SK-OV-3; > 100 µM (inactive) in the assay with SNB-19; 50.6 µM (inactive) with SNB-75; 26.9 µM (inactive) in the assay with SR; 70.8 µM (inactive) in the assay with T47D. Besides, the GI50 with UO-31 was 44.6 µM (inactive).

Take `CC1(C)Cc2c(sc3[nH]c(=S)[nH]c(=S)c23)CS1`: the GI50 with 786-0 was 85.9 µM (inactive); in the assay on CAKI-1, 30.5 µM (inactive); with HCT-116 it was 47 µM (inactive); in the assay on HL-60, 33.2 µM (inactive); in the assay with Hs-578T it was 45.2 µM (inactive); in the assay with KM12, 45.8 µM (inactive). The GI50 in the assay on NCI-H226 is 44.5 µM (inactive); in the assay with NCI-H23, 55.3 µM (inactive); in the assay with NCI/ADR-RES, 43.4 µM (inactive); with OVCAR-4, 18.2 µM (inactive); in the assay with OVCAR-8, 90.2 µM (inactive); with RXF 393 it was 60.8 µM (inactive). For the same compound, the GI50 in the assay with SK-MEL-2 is 38.4 µM (inactive); in the assay on SK-MEL-5 it was 29.6 µM (inactive); with SK-OV-3, 27.7 µM (inactive); in the assay with SNB-19, 54.8 µM (inactive); in the assay on SR, 48.6 µM (inactive); in the assay with T47D, 20.3 µM (inactive). Moreover, in the assay on UO-31, the GI50 is 31.8 µM (inactive).

Take `COc1cccc(-c2cc(O)c3c(C)ccnc3n2)c1`: the GI50 in the assay with 786-0 was 0.0449 µM (active); in the assay with HCT-116, 0.0392 µM (active); with HL-60, < 0.0114 µM (active); in the assay on Hs-578T it was 0.0222 µM (active); with KM12 it was 0.0257 µM (active); in the assay with NCI-H226 it was 0.0272 µM (active). Also, the GI50 with NCI-H23 is 0.0625 µM (active); in the assay on NCI/ADR-RES it was 0.0224 µM (active); in the assay on OVCAR-4, 18 µM (inactive); in the assay on OVCAR-8, 0.0646 µM (active); in the assay on RXF 393 it was 0.0284 µM (active); in the assay with SK-MEL-2, 0.0695 µM (active). The GI50 in the assay with SK-MEL-5 is 0.0241 µM (active); in the assay on SK-OV-3 it was 0.0365 µM (active); with SNB-19 it was 0.031 µM (active); in the assay with SNB-75 it was 0.0143 µM (active); with SR it was < 0.01 µM (active); with T47D, 49 µM (inactive). In addition, in the assay on UO-31, the GI50 was 0.0703 µM (active).
